In patent publication US11707462B2, “Checkpoint kinase 1 (CHK1) inhibitors and uses thereof” (Boundless Bio, Inc., priority 2021, dated 2023):

What follows are compounds tested against T1, Full-length human Chk1 protein (Homo sapiens, UniProt O14757) (assay: Kinase HTRF biochemical assay (HTRF KinEASE), Chk1 enzyme activity). Settings: full-length human Chk1, ATP 1 mM, 60 minutes at room temperature.
T1 construct: purchased Carna Biosciences, Inc. 02-117
T1 sequence (O14757 1-476): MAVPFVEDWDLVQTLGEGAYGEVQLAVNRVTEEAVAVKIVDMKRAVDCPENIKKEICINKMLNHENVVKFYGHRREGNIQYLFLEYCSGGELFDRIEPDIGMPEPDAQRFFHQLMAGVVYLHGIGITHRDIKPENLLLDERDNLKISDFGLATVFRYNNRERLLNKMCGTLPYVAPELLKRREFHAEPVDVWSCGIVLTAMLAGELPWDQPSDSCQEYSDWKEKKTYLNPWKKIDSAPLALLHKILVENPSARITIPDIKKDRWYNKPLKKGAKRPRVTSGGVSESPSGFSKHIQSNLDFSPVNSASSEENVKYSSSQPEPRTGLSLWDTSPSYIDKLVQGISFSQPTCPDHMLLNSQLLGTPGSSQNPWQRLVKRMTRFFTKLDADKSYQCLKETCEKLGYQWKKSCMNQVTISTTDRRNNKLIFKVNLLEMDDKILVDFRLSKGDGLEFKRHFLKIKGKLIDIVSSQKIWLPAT
Description: Example A: Kinase HTRF Biochemical Assay
Chk1 enzyme activity was measured using an HTRF KinEASE assay (Cisbio, catalog no. 62ST1PEC). Full-length human Chk1 protein (GenBank accession number NP_001265.1) was obtained from Carna Biosciences, Inc. (Kobe, Japan, catalog no. 02-117). The enzyme reaction was carried out in assay buffer containing (final concentrations): Chk1 enzyme (0.012 ng/μL), MgCl2 (5 mM) and DTT (1 mM). To determine compound dose response, DMSO stock solutions were serially diluted in a 10-point concentration series in duplicate. Compound solution (50 nL) was added to 384-well assay plates (Greiner, catalog no. 784075). To each well containing compound solution was added assay buffer solution (5 μL). Plates were centrifuged at 1000 rpm for 1 minute, then incubated at room temperature for 10 minutes. The reaction was started by addition of substrate buffer (5 μL/well) containing (final concentrations): STK substrate 1-biotin (120 nM) and ATP (1 mM). Assay plates were centrifuged at 1000 rpm for 1 minute, then incubated at room temperature for 60 minutes. The reaction was stopped by addition of detection buffer (Cisbio, 10 μL) containing (final concentrations): STK antibody-cryptate (0.25 nM) and streptavidin-XL665 (7.5 nM). Plates were centrifuged at 1000 rpm for 1 minute, then incubated at 25° C. for 2 hours. HTRF signal was read on an EnVision multimode plate reader […] in HTRF mode. Data were fit to dose-response curves using XLfit (IDBS, Surrey, UK) or Prism (GraphPad Software, La Jolla, Calif., US) to calculate IC50 values for each compound tested.

First: N#Cc1cnc(Nc2cc(-c3c(OCC(F)(F)F)cccc3O[C@@H]3CC[C@H](N)C3)[nH]n2)cn1 [Example 1-25, 5-((5-(2-(((1R,3S)-3-aminocyclopentyl)oxy)-6-(2,2,2-trifluoroethoxy)phenyl)-1-pyrazol-3-yl)amino)pyrazine-2-carbonitrile]
Second: N#Cc1cnc(Nc2cc(-c3c(OCC4CC4)cccc3O[C@@H]3CC[C@H](N)C3)[nH]n2)cn1 [Example 1-33, 5-((5-(2-(((1R,3S)-3-aminocyclopentyl)oxy)-6-(cyclopropylmethoxy)phenyl)-1H-pyrazol-3-yl)amino)pyrazine-2-carbonitrile]
The IC50 of the first is higher: 500 to 1000 nM for the first, 100 to 500 nM for the second.

First: CC(C)Oc1cccc(O[C@H]2C[C@H](N)C2)c1-c1cc(Nc2cnc(C#N)cn2)n[nH]1 [Example 1-15, 5-((5-(2-((1r,3r)-3-aminocyclobutoxy)-6-isopropoxyphenyl)-1H-pyrazol-3-yl)amino)pyrazine-2-carbonitrile]
Second: CC(C)Oc1cccc(O[C@@H]2CC[C@H](N)C2)c1-c1cc(Nc2cnc(C#N)cn2)n[nH]1 [Example 1-24, 5-((5-(2-(((1R,3S)-3-aminocyclopentyl)oxy)-6-isopropoxyphenyl)-1H-pyrazol-3-yl)amino)pyrazine-2-carbonitrile]
The IC50 of the first is lower: 100 to 500 nM for the first, > 1000 nM for the second.

`N#Cc1cnc(Nc2cc(-c3c(F)cccc3O[C@H]3CCCC[C@@H](N)C3)[nH]n2)cn1` [Example 3-36, 5-((5-(2-(((1S,3R)-3-aminocycloheptyl)oxy)-6-fluorophenyl)-1H-pyrazol-3-yl)amino)pyrazine-2-carbonitrile] and `N#Cc1cnc(Nc2cc(-c3c(F)cccc3O[C@@H]3CCCC[C@@H](N)C3)[nH]n2)cn1` [Example 3-37, 5-((5-(2-(((1R,3R)-3-aminocycloheptyl)oxy)-6-fluorophenyl)-1H-pyrazol-3-yl)amino)pyrazine-2-carbonitrile] cannot be ordered by IC50: ≤ 10 nM for the first, 10 to 100 nM for the second.

Compared with `N#Cc1cnc(Nc2cc(-c3ccccc3OC3CC4(CC(N)C4)C3)[nH]n2)cn1` (stereo not shown) [Example 1-54, 5-((5-(2-((6-aminospiro[3.3]heptan-2-yl)oxy)phenyl)-1H-pyrazol-3-yl)amino)pyrazine-2-carbonitrile], `N#Cc1cnc(Nc2cc(-c3c(F)cccc3OC3CC4(CC(N)C4)C3)[nH]n2)cn1` (stereo not shown) [Example 3-41, 5-((5-(2-((6-aminospiro[3.3]heptan-2-yl)oxy)-6-fluorophenyl)-1H-pyrazol-3-yl)amino)pyrazine-2-carbonitrile] is higher in IC50: 10 to 100 nM for the first, 100 to 500 nM for the second. The first is the more potent here.

`CC(C)Oc1cccc(O[C@H]2CC[C@H](N)CC2)c1-c1cc(Nc2cnc(C#N)cn2)n[nH]1` [Example 1-18, 5-((5-(2-(((1r,4r)-4-aminocyclohexyl)oxy)-6-isopropoxyphenyl)-1H-pyrazol-3-yl)amino)pyrazine-2-carbonitrile] and `N#Cc1cnc(Nc2cc(-c3c(OC4CCC4)cccc3O[C@H]3CC[C@H](N)CC3)[nH]n2)cn1` [Example 1-34, 5-((5-(2-(((1r,4r)-4-aminocyclohexyl)oxy)-6-cyclobutoxyphenyl)-1H-pyrazol-3-yl)amino)pyrazine-2-carbonitrile] fall in the same range of IC50: 100 to 500 nM for the first, 100 to 500 nM for the second.

Compared with `N#Cc1cnc(Nc2cc(-c3nc(C(F)F)ccc3O[C@@H]3CC[C@H](N)C3)[nH]n2)cn1` [Example 3-54, 5-((5-(3-(((1R,3S)-3-aminocyclopentyl)oxy)-6-(difluoromethyl)pyridin-2-yl)-1H-pyrazol-3-yl)amino)pyrazine-2-carbonitrile], `Cc1ccc(O[C@H]2CC[C@@H](N)C2)c(-c2cc(Nc3cnc(C#N)cn3)n[nH]2)n1` [Example 3-43, 5-((5-(3-(((1S,3R)-3-aminocyclopentyl)oxy)-6-methylpyridin-2-yl)-1H-pyrazol-3-yl)amino)pyrazine-2-carbonitrile] is higher in IC50: ≤ 10 nM for the first, 100 to 500 nM for the second.

First: N#Cc1cnc(Nc2cc(-c3c(F)cccc3O[C@H]3CC[C@@H]3N)[nH]n2)cn1 [Example 3-31, 5-((5-(2-((1S,2S)-2-aminocyclobutoxy)-6-fluorophenyl)-1H-pyrazol-3-yl)amino)pyrazine-2-carbonitrile]
Second: N#Cc1cnc(Nc2cc(-c3c(F)cccc3O[C@@H]3CC[C@@H]3N)[nH]n2)cn1 [Example 3-32, 5-((5-(2-((1R,2S)-2-aminocyclobutoxy)-6-fluorophenyl)-1H-pyrazol-3-yl)amino)pyrazine-2-carbonitrile]
The IC50 of the first is higher: 100 to 500 nM for the first, 10 to 100 nM for the second.

First: COc1cccc(OCC2CC2N)c1-c1cc(Nc2cnc(C#N)cn2)n[nH]1 (stereo not shown) [Example 3-55, 5-((5-(2-((2-aminocyclopropyl)methoxy)-6-methoxyphenyl)-1H-pyrazol-3-yl)amino)pyrazine-2-carbonitrile]
Second: COc1cccc(OC[C@H]2C[C@@H](N)C2)c1-c1cc(Nc2cnc(C#N)cn2)n[nH]1 [Example 1-2, 5-((5-(2-(((1s,3s)-3-aminocyclobutyl)methoxy)-6-methoxyphenyl)-1H-pyrazol-3-yl)amino)pyrazine-2-carbonitrile]
The IC50 of the first is lower: ≤ 10 nM for the first, > 1000 nM for the second.

Compared with `COc1cccc(O[C@@H]2CC[C@@H]2N)c1-c1cc(Nc2cnc(C#N)cn2)n[nH]1` [Example 3-4, 5-((5-(2-((1R,2S)-2-aminocyclobutoxy)-6-methoxyphenyl)-1H-pyrazol-3-yl)amino)pyrazine-2-carbonitrile], `N#Cc1cnc(Nc2cc(-c3c(F)cccc3O[C@H]3CC[C@H]3N)[nH]n2)cn1` [Example 3-34, 5-((5-(2-((1S,2R)-2-aminocyclobutoxy)-6-fluorophenyl)-1H-pyrazol-3-yl)amino)pyrazine-2-carbonitrile] is higher in IC50: 10 to 100 nM for the first, > 1000 nM for the second. The first is the more potent here.

Compared with `N#Cc1cnc(Nc2cc(-c3c(OC4CCC4)cccc3O[C@H]3C[C@H](N)C3)[nH]n2)cn1` [Example 1-35, 5-((5-(2-((1r,3r)-3-aminocyclobutoxy)-6-cyclobutoxyphenyl)-1H-pyrazol-3-yl)amino)pyrazine-2-carbonitrile], `COc1cccc(O[C@@H]2CCC[C@H](N)C2)c1-c1cc(Nc2cnc(C#N)cn2)n[nH]1` (relative stereo) [Example 1-66] is higher in IC50: 100 to 500 nM for the first, > 1000 nM for the second. The first is the more potent here.

First: COc1cccc(O[C@H]2CCCC[C@@H](N)C2)c1-c1cc(Nc2cnc(C#N)cn2)n[nH]1 [Example 3-9, 5-((5-(2-(((1S,3R)-3-aminocycloheptyl)oxy)-6-methoxyphenyl)-1H-pyrazol-3-yl)amino)pyrazine-2-carbonitrile]
Second: COc1cccc(O[C@@H]2CCCC[C@@H](N)C2)c1-c1cc(Nc2cnc(C#N)cn2)n[nH]1 [Example 3-6, 5-((5-(2-(((1R,3R)-3-aminocycloheptyl)oxy)-6-methoxyphenyl)-1H-pyrazol-3-yl)amino)pyrazine-2-carbonitrile]
The IC50 of the first is lower: 10 to 100 nM for the first, 100 to 500 nM for the second. The first is the more potent here.

First: Cc1nc(-c2cc(Nc3cnc(C(N)=O)cn3)n[nH]2)c(O[C@@H]2CC[C@H](N)C2)cc1F [Example 3-51, 5-((5-(3-(((1R,3S)-3-aminocyclopentyl)oxy)-5-fluoro-6-methylpyridin-2-yl)-1H-pyrazol-3-yl)amino)pyrazine-2-carboxamide]
Second: Cc1nc(-c2cc(Nc3cnc(C#N)cn3)n[nH]2)c(O[C@@H]2CC[C@H](N)C2)cc1Cl [Example 3-52, 5-((5-(3-(((1R,3S)-3-aminocyclopentyl)oxy)-5-chloro-6-methylpyridin-2-yl)-1H-pyrazol-3-yl)amino)pyrazine-2-carbonitrile]
The IC50 of the first is higher: > 1000 nM for the first, 100 to 500 nM for the second. The second is the more potent here.

Compared with `CN[C@@H]1CC[C@@H](Oc2ccc(Cl)c(F)c2-c2cc(Nc3cnc(C(N)=O)cn3)n[nH]2)C1` [Example 3-23, 5-((5-(3-chloro-2-fluoro-6-(((1R,3R)-3-(methylamino)cyclopentyl)oxy)phenyl)-1H-pyrazol-3-yl)amino)pyrazine-2-carboxamide], `COc1ccc(Cl)c(O[C@@H]2CC[C@H](N)C2)c1-c1cc(Nc2cnc(C#N)cn2)n[nH]1` [Example 4-4, 5-((5-(2-(((1R,3S)-3-aminocyclopentyl)oxy)-3-chloro-6-methoxyphenyl)-1H-pyrazol-3-yl)amino)pyrazine-2-carbonitrile] is lower in IC50: > 1000 nM for the first, 100 to 500 nM for the second. The second is the more potent here.

Compared with `Cc1cc(-c2cc(Nc3cnc(C#N)cn3)n[nH]2)c(O[C@@H]2CC[C@H](N)C2)cc1F` [Example 3-17, 5-((5-(2-(((1R,3S)-3-aminocyclopentyl)oxy)-4-fluoro-5-methylphenyl)-1H-pyrazol-3-yl)amino)pyrazine-2-carbonitrile], `Cc1cc(Cl)c(O[C@@H]2CC[C@H](N)C2)c(-c2cc(Nc3cnc(C#N)cn3)n[nH]2)n1` [Example 3-53, 5-((5-(3-(((1R,3S)-3-aminocyclopentyl)oxy)-4-chloro-6-methylpyridin-2-yl)-1H-pyrazol-3-yl)amino)pyrazine-2-carbonitrile] is higher in IC50: 10 to 100 nM for the first, > 1000 nM for the second. The first is the more potent here.
